IC50 data for 32 molecules are collected here from US9708337B2, “Aryl amide-based kinase inhibitors” (Bristol-Myers Squibb Company, priority 2013, dated 2017).

Each structure is given as a SMILES string.

AAK1 (GST-Xa-hAAK1), sequence (Q2M2I8 whole entry): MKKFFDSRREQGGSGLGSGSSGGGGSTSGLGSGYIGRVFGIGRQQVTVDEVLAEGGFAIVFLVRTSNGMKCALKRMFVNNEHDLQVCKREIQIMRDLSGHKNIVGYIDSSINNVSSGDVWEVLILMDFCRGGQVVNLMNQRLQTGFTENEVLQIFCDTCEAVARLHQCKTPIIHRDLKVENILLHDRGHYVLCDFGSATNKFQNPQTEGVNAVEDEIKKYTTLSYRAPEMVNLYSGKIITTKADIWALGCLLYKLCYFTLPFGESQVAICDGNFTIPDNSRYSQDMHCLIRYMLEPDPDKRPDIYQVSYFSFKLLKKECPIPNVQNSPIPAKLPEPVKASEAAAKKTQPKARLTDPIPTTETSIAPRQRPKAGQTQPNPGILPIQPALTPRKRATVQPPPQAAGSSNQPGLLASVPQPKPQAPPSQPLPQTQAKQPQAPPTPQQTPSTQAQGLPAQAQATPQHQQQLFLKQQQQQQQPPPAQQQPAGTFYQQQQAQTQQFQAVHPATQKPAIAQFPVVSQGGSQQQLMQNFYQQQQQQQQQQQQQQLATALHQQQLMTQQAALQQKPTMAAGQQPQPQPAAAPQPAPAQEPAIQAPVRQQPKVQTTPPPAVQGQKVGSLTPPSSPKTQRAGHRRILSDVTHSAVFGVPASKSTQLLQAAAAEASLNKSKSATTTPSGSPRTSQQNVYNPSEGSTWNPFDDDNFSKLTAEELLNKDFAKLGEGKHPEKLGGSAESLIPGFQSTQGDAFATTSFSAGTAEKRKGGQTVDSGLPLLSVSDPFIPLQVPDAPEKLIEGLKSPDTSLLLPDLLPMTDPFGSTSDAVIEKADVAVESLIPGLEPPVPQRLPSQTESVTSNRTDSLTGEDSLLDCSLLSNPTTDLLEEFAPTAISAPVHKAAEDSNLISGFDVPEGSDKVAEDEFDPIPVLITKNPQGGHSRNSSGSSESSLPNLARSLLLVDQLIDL

One assay addresses AAK1 (GST-Xa-hAAK1) (Homo sapiens (Human), UniProt Q2M2I8). Nature of the assay: AAK1 Kinase Assay. The assay is classed as biochemical.
Settings: not given
The method, then:
The assays were performed in U-bottom 384-well plates. […] The reactions were initiated by the combination of bacterially expressed, GST-Xa-hAAK1 with substrates and test compounds. The reactions were incubated at room temperature for 3 hours and terminated by adding 60 μl of 35 mM EDTA buffer to each sample. […] Compounds were dissolved at 10 mM in dimethylsulfoxide (DMSO) and evaluated at eleven concentrations. IC50 values were derived by non-linear regression analysis.
As usually defined, the IC50 is the concentration at which inhibition is half-maximal. As for `O=C(CCO)Nc1ccc2c(c1)OCc1cnccc1-2` [Example 19, N-(5H-chromeno[3,4-c]pyridin-8-yl)-3-hydroxypropanamide], the IC50 is 100 to 1200 nM.

Turning to `N[C@H](CNc1ccc2c(c1)OCc1cnccc1-2)c1ccccc1` [Example 37, (S)—N^1-(5H-chromeno[3,4-c]pyridin-8-yl)-2-phenylethane-1,2-diamine], the half-inhibitory concentration (IC50) fell in the range of 10 to 100 nM.

Take `CC(C)(C)CC(=O)Nc1ccc2c(c1)OCc1cnccc1-2` [Example 26, N-(5H-chromeno[3,4-c]pyridin-8-yl)-3,3-dimethylbutanamide]: the IC50 is 10 to 100 nM.

For `CCCC(=O)Nc1ccc2c(c1)OCc1cnccc1-2` [Example 31, N-(5H-chromeno[3,4-c]pyridin-8-yl)butyramide], the IC50 lay in the range of 10 to 100 nM.

With `N#CC1(C(=O)Nc2ccc3c(c2)OCc2cnccc2-3)CC1` [Example 20, N-(5H-chromeno[3,4-c]pyridin-8-yl)-1-cyanocyclopropanecarboxamide], the concentration for half-maximal inhibition (IC50) is 100 to 1200 nM.

For `N#CCC(=O)Nc1ccc2c(c1)OCc1cnccc1-2` [Example 25, N-(5H-chromeno[3,4-c]pyridin-8-yl)-2-cyanoacetamide], the IC50 is 100 to 1200 nM.

In the case of `CC(C)(C)C(=O)Nc1ccc2c(c1)OCc1cnccc1-2` [Example 32, N-(5H-chromeno[3,4-c]pyridin-8-yl)pivalamide], the IC50 lay within 100 to 1200 nM.

Regarding `O=C(Nc1ccc2c(c1)OCc1cnccc1-2)NC1CCCCC1` [Example 13, 1-(5H-chromeno[3,4-c]pyridin-8-yl)-3-cyclohexylurea], the IC50 is 100 to 1200 nM.

For `CC(C)(C)COC(=O)Nc1ccc2c(c1)OCc1cnccc1-2` [Example 12, neopentyl 5H-chromeno[3,4-c]pyridin-8-ylcarbamate], the concentration for half-maximal inhibition (IC50) was 100 to 1200 nM.

With `COC(=O)CCC(=O)Nc1ccc2c(c1)OCc1cnccc1-2` [Example 29, methyl 4-((5H-chromeno[3,4-c]pyridin-8-yl)amino)-4-oxobutanoate], the IC50 was in the range of 100 to 1200 nM.

With `O=C(Nc1ccc2c(c1)OCc1cnccc1-2)C1CCCCC1` [Example 23, N-(5H-chromeno[3,4-c]pyridin-8-yl)cyclohexanecarboxamide], the IC50 is 100 to 1200 nM.

Consider `CC(C)C(=O)Nc1ccc2c(c1)OCc1cnccc1-2` [Example 24, N-(5H-chromeno[3,4-c]pyridin-8-yl)isobutyramide], for which the IC50 was in the range of 100 to 1200 nM.

Regarding `NS(=O)(=O)CCCC(=O)Nc1ccc2c(c1)OCc1cnccc1-2` [Example 21, N-(5H-chromeno[3,4-c]pyridin-8-yl)-4-sulfamoylbutanamide], the IC50 was 100 to 1200 nM.

Turning to `CC(C)CC(=O)Nc1ccc2c(c1)OCc1cnccc1-2` [Example 27, N-(5H-chromeno[3,4-c]pyridin-8-yl)-3-methylbutanamide], the IC50 is 10 to 100 nM.

For `CCCCC(=O)Nc1cc2c(cc1Br)-c1ccncc1CO2` [Example 34, N-(9-bromo-5H-chromeno[3,4-c]pyridin-8-yl)pentanamide], the IC50 lay in the range of 10 to 100 nM.

As to `COCCC(=O)Nc1ccc2c(c1)OCc1cnccc1-2` [Example 18, N-(5H-chromeno[3,4-c]pyridin-8-yl)-3-methoxypropanamide], the half-maximal inhibitory concentration (IC50) lay in the range of 100 to 1200 nM.

As to `CCC(=O)Nc1ccc2c(c1)OCc1cnccc1-2` [Example 28, N-(5H-chromeno[3,4-c]pyridin-8-yl)propionamide], the 50% inhibitory concentration (IC50) was 100 to 1200 nM.

As for `CC(C)C[C@H](N)C(=O)Nc1ccc2c(c1)OCc1cnccc1-2` [Example 2, (S)-2-amino-N-(5H-chromeno[3,4-c]pyridin-8-yl)-4-methylpentanamide], the IC50 lay in the range of 1 to 10 nM.

`CC(C)C[C@@H](N)C(=O)Nc1ccc2c(c1)OCc1cnccc1-2` [Example 1, (R)-2-amino-N-(5H-chromeno[3,4-c]pyridin-8-yl)-4-methylpentanamide]: the 50% inhibitory concentration (IC50) fell in the range of 1 to 10 nM.

Regarding `CC(=O)Nc1ccc2c(c1)OCc1cnccc1-2` [Example 17, N-(5H-chromeno[3,4-c]pyridin-8-yl)acetamide], the IC50 lay within 100 to 1200 nM.

Take `C#CCCC(=O)Nc1ccc2c(c1)OCc1cnccc1-2` [Example 14, N-(5H-chromeno[3,4-c]pyridin-8-yl)pent-4-ynamide]: the IC50 was 10 to 100 nM.

As for `CC(C)C[C@@H](N)C(=O)Nc1ccc2c(c1)OC(C)(C)c1cnccc1-2` [Example 8, (R)-2-amino-N-(5,5-dimethyl-5H-chromeno[3,4-c]pyridin-8-yl)-4-methylpentanamide], the half-maximal inhibitory concentration (IC50) was in the range of 10 to 100 nM.

Staying with this assay, now noted: Table 1a, listed as IC50 ranges; ATP 22 μM; read-out: AAK1 IC50.
Consider `CC(=O)Nc1cc2c(cn1)COc1cc(NC(=O)[C@@H](N)CC(C)C)ccc1-2` [Example 35, (S)—N-(2-acetamido-5H-chromeno[3,4-c]pyridin-8-yl)-2-amino-4-methylpentanamide], for which the IC50 fell in the range of 10 to 100 nM.

Take `CN(C)CC(=O)Nc1ccc2c(c1)OCc1cnccc1-2` [Example 33, N-(5H-chromeno[3,4-c]pyridin-8-yl)-2-(dimethylamino)acetamide]: the IC50 was 100 to 1200 nM.

On to `CC(C)C[C@H](N)C(=O)Nc1ccc2c(c1)oc(=O)c1cnccc12` [Example 11, (S)-2-amino-4-methyl-N-(5-oxo-5H-chromeno[3,4-c]pyridin-8-yl)pentanamide], for which the 50% inhibitory concentration (IC50) lay in the range of 100 to 1200 nM.

Regarding `N#CCCC(=O)Nc1ccc2c(c1)OCc1cnccc1-2` [Example 16, N-(5H-chromeno[3,4-c]pyridin-8-yl)-3-cyanopropanamide], the IC50 lay within 100 to 1200 nM.

Take `CC(C)CCC(=O)Nc1ccc2c(c1)OCc1cnccc1-2` [Example 30, N-(5H-chromeno[3,4-c]pyridin-8-yl)-4-methylpentanamide]: the IC50 was in the range of 10 to 100 nM.

The assay is the same for the next values; noted with them: Table 1a, numeric values; ATP 22 μM; read-out: AAK1 IC50.
Take `O=C(CCN1CCCC1=O)Nc1ccc2c(c1)OCc1cnccc1-2` [Example 22, N-(5H-chromeno[3,4-c]pyridin-8-yl)-3-(2-oxopyrrolidin-1-yl)propanamide]: the IC50 amounted to 1200 nM.

In the case of `CCCCC(=O)Nc1ccc2c(c1)OCc1cnccc1-2` [Example 15, N-(5H-chromeno[3,4-c]pyridin-8-yl)pentanamide], the IC50 turned out to be 26 nM.

As for `N[C@H](C(=O)Nc1ccc2c(c1)OCc1cnccc1-2)c1ccccc1` [Example 36, (S)-2-amino-N-(5H-chromeno[3,4-c]pyridin-8-yl)-2-phenylacetamide], the IC50 was determined as 8.9 nM.

For the molecule `CC(C)C[C@H](N)C(=O)Nc1ccc2c(c1)OC(C)(C)c1cnccc1-2` [Example 9, (S)-2-amino-N-(5,5-dimethyl-5H-chromeno[3,4-c]pyridin-8-yl)-4-methylpentanamide], the IC50 amounted to 129 nM.

As for `CC(C)C1CCCNC1C(=O)Nc1ccc2c(c1)OCc1cnccc1-2` (centres unmarked) [Example 10, N-(5H-chromeno[3,4-c]pyridin-8-yl)-3-isopropylpiperidine-2-carboxamide], the IC50 was 1.3 nM.
